Data on 34 compounds can be found in ChEMBL document CHEMBL1201862, “PubChem BioAssay data set” (2004).

Activity calls are given as the source filed them.

A word on the IC50: it is the concentration that gives 50% inhibition. The term AC50 denotes the concentration giving half of the maximal activity seen. A word on the EC50: it is the concentration giving half of the maximal effect.

The target in experiment [1] is T1, Protein skinhead-1 (Caenorhabditis elegans, UniProt P34707).
T1 sequence (P34707 whole entry): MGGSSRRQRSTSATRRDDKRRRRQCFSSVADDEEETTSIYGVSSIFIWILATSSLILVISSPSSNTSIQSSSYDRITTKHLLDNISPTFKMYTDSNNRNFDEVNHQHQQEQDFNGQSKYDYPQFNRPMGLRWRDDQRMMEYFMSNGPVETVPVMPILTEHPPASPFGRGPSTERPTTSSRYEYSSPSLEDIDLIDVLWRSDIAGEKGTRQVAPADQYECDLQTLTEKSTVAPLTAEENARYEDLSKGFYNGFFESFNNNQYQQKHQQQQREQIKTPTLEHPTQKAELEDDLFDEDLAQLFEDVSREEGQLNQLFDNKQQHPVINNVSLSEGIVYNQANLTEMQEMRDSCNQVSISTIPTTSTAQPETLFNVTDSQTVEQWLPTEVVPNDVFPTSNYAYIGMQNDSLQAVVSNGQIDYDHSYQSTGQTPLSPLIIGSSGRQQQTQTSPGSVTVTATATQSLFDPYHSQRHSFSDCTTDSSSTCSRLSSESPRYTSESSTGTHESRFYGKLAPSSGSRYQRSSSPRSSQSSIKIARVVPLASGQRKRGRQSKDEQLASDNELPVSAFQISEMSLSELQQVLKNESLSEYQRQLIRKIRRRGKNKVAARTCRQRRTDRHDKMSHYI
It counts as functional.

Experiment [2] has as its target T2, Rac GTPase-activating protein 1 (Homo sapiens, UniProt Q9H0H5).
T2 sequence (Q9H0H5 whole entry): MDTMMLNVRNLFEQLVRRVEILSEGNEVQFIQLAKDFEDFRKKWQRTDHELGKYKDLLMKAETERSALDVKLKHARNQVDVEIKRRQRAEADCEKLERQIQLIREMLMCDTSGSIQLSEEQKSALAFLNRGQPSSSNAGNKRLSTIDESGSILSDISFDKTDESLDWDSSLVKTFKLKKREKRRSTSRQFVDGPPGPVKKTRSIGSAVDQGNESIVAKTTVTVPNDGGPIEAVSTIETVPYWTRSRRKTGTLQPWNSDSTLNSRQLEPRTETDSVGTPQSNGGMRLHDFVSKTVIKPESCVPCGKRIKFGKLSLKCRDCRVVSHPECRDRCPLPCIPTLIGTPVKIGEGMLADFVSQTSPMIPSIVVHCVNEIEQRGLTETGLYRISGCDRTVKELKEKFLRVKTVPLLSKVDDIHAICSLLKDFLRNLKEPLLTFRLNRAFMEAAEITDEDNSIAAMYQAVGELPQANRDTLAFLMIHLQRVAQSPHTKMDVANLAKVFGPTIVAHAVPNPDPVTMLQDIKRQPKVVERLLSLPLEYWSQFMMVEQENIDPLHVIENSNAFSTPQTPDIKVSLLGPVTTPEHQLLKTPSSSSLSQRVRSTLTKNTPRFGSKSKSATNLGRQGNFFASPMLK
Description: blockers of MgcRacGAP-driven Rac1 GTP hydrolysis – biochemical, ADP Hunter fluorescence, primary and confirmatory, confirmation (AID 624330). It counts as functional.

The subject of experiment [3] is H9c2. Description: cells. It counts as functional, cell-based. Conditions: Rattus norvegicus, H9c2, Myocardium.
A short description of experiment [4]: blockers of HIV-1 ZM109 envelope-driven cell-cell fusion – HeLa effector, CEM target cells, luciferase, cherry-pick, dose response (AID 652058).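 Note: luciferase signal from HIV-1 Env mediated cell-cell fusion of effector and target cells.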 It counts as functional, cell-based.
A short description of experiment [5]: HIV-1 AD8 envelope cell-cell fusion blockers – cherry-pick, dose response (AID 652062).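 Note: luciferase signal from cell-cell fusion driven by HIV-1 clade B AD8 Env; potency is for inhibitors of fusion seen as a drop in luminescence.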 It counts as functional, cell-based.
The target of experiment [6] is T3, Protein RecA (Mycobacterium tuberculosis, UniProt P9WHJ3).
T3 sequence (P9WHJ3 whole entry): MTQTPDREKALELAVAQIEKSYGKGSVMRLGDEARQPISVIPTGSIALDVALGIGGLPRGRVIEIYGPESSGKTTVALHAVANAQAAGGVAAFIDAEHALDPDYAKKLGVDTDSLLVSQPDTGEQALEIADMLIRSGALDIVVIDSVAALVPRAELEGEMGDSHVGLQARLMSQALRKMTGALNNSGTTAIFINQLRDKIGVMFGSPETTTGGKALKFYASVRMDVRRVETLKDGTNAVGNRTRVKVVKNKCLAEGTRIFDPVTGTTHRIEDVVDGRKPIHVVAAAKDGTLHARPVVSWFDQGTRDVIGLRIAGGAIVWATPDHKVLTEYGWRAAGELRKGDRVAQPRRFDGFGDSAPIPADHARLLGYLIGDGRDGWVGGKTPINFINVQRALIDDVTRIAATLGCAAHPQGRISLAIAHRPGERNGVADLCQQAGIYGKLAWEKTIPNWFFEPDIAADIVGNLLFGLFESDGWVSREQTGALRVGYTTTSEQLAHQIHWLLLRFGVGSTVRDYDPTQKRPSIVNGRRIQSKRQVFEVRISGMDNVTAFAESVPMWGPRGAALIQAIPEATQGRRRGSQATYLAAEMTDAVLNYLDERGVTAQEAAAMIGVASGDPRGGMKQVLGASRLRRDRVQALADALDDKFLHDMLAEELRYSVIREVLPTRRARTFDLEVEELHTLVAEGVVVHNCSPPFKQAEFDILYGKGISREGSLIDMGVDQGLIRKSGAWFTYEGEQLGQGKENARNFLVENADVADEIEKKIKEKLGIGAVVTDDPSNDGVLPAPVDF
Kind of experiment: Fluorescence Cell-Free Homogeneous Dose Retest to Identify Inhibitors of RecA-Intein Splicing Activity. [Related pubchem assays (depositor defined):AID2097, AID2223, AID489010, AID492950]. The format is functional.

Experiment [7] addresses T4, Replicative DNA helicase DnaB (Mycobacterium tuberculosis, UniProt P9WMR3).
T4 sequence (P9WMR3 whole entry): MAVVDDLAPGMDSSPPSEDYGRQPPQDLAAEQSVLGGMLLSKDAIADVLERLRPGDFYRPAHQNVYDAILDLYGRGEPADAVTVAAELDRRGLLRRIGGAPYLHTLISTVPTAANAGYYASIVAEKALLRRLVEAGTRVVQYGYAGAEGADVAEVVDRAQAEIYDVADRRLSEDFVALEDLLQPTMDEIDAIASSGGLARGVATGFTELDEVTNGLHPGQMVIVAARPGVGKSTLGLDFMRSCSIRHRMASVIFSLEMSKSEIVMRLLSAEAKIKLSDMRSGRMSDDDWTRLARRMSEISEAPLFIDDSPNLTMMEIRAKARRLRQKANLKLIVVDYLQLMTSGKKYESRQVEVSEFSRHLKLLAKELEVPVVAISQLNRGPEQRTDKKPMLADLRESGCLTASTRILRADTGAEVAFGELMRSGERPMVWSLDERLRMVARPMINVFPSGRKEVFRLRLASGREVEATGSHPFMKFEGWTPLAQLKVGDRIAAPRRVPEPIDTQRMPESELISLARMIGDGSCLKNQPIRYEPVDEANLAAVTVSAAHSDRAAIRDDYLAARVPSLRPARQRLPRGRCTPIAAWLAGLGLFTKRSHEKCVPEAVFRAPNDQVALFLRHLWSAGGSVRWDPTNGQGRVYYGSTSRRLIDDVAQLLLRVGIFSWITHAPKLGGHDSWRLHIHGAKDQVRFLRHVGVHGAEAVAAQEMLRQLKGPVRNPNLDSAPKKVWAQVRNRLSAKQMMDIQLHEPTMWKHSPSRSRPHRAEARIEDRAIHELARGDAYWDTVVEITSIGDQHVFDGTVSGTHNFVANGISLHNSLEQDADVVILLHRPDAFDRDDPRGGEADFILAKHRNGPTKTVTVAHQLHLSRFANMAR
Description: DnaB intein splicing inhibitors, dose response, biochemical, cell-free fluorescence (AID 449749). The format is functional.

The target in experiment [8] is Cytochrome P450 3A4 (Homo sapiens, UniProt P08684).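 Note: CYP3A4 tested as one member of a cytochrome P450 panel screen.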
Sequence of Cytochrome P450 3A4 (P08684 whole entry): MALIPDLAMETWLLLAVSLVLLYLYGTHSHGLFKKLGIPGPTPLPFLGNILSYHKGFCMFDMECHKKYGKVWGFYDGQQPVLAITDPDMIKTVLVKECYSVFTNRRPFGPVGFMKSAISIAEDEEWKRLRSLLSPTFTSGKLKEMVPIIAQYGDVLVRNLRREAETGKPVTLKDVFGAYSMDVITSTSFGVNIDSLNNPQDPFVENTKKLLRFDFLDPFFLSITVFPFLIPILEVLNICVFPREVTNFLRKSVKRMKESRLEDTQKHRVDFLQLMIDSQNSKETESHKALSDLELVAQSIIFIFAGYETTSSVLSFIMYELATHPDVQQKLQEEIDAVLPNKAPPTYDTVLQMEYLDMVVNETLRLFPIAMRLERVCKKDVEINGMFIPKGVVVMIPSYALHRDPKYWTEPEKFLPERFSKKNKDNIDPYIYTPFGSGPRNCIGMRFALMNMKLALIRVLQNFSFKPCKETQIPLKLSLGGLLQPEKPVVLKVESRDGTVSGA
Experiment [9] has as its target Cytochrome P450 2C9 (Homo sapiens, UniProt P11712).
The nature of experiment [10]: blockers of HIV-1 envelope-mediated cell-cell fusion – cherry-pick, dose response (AID 652057). The format is functional, cell-based.

Sequence of Cytochrome P450 2C9 (P11712 whole entry, the tested form may be a part): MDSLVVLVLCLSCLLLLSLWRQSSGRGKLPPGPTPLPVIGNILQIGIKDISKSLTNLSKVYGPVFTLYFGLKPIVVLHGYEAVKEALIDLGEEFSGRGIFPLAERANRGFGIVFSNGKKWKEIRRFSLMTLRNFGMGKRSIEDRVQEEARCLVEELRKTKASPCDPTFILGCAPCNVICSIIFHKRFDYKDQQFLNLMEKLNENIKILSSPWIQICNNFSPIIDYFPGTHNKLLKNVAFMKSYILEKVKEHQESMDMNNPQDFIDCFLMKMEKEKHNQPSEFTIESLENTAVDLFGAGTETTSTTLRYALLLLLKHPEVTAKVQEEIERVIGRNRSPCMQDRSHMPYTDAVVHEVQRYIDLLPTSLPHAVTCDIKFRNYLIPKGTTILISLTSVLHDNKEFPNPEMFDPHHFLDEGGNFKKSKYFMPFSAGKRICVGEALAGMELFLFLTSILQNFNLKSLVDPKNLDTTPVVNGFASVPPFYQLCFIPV

On to `Fc1ccc(-c2csc(Nc3ccccn3)n2)c(F)c1`, for which the IC50 in experiment [1] is > 100 µM (inactive).
In the case of `CCOC(=O)C1CCN(Cc2c[nH]nc2-c2ccccc2)CC1`, in experiment [2], the IC50 was 131 µM (active).
On to `Oc1nnc(-c2cccs2)c2ccccc12`, for which the IC50 in [3] was 19.4 µM (active).
Still for that read-out and setting: to `COc1ccc(S(=O)(=O)N2CC(O)CC2C(=O)OCc2nc(O)c3c(C)c(C)sc3n2)cc1` (centres undefined) belongs 31 µM (inactive).
For `COC(=O)c1ccc(CSc2ccc3nnc(-c4cccc(F)c4)n3n2)o1`, the IC50 in experiment [3] was > 79 µM (inactive).
Regarding `CCN(CC)CCN1C(=O)C(O)=C(C(=O)c2cnn(-c3ccccc3)c2C)C1c1ccc(C)o1` (centres undefined), in experiment [1], the IC50 is > 100 µM (inactive).
Regarding `CCOC(=O)C1CCCN(Cc2nc(N)nc(Nc3ccc(OC)cc3)n2)C1` (centres undefined), the values for the AC50 in experiment [4] and in experiment [5] were 4.93 µM (active) and 27 µM (active), respectively.
For `O=[N+]([O-])c1ccc(Oc2ccc(F)cc2)c2ccncc12`, in [1], the IC50 was > 100 µM (inactive). Also, the concentration giving a half-maximal response (EC50) in [6] is 1.4 µM (active). Besides, the AC50 in experiment [7] is > 380 µM (inactive).
`COc1ccccc1-c1c(C(F)(F)F)oc2cc(OC(=O)c3cccc([N+](=O)[O-])c3C)ccc2c1=O`: in experiment [1], the IC50 was > 100 µM (inactive). The AC50 in [8] was 12.6 µM (inconclusive); in experiment [9], 0.447 µM (inconclusive).
Take `CCn1c(C)c(C2=CCN(S(=O)(=O)c3ccccc3)CC2)c2ccccc21`: in [1], the IC50 is > 100 µM (inactive).
Consider `COc1ccc(NC(=O)COc2cccc3c2CCNC3=O)cc1`, for which the IC50 in experiment [3] is > 79 µM (inactive).
Consider `Cc1cc(C)n2c(SCc3c(C)noc3C)nnc2n1`, for which the IC50 in experiment [1] was > 100 µM (inactive).
Still for that read-out and setting: to `O=C(NCC(=O)N(Cc1cccs1)C(C(=O)NC1CCCCC1)c1ccncc1)c1ccco1` (centres undefined) belongs > 100 µM (inactive).
On to `COc1ccc(NC2CCCN(C(=O)CSc3ccccc3)C2)cc1OC` (centres undefined), for which the half-inhibitory concentration (IC50) in experiment [2] was 60 µM (active).
Consider `CCCNCc1cc(Cl)c(OCC)c(Cl)c1`, for which the IC50 in experiment [1] was > 100 µM (inactive).
On the same count and under the same terms, to `c1ccc(OCc2nc(-c3cccs3)no2)cc1` belongs 31.5 µM (active).
Regarding `CCOc1cccc2cc(C(=O)N3CCc4ccccc43)c(=O)oc12`, the IC50 in experiment [1] was > 100 µM (inactive).
The same measure, in the same setting: then `COCCCn1c(SCC(=O)NC(C)C)nnc1-c1ccccc1`, with > 100 µM (inactive).
Regarding `Cn1c(=O)[nH]c(=O)c2c1nc(NCCc1ccccc1)n2CC(O)COc1ccccc1` (centres undefined), the IC50 in experiment [3] is > 79 µM (inactive).
Still for that read-out and setting: then `Cc1ccc(C(=O)Nc2cccc(C(F)(F)F)c2)cc1NC(=O)c1csc(-c2ccncc2)n1`, with > 79 µM (inactive); and `COc1ccc2nc(O)c(CNC3CCCCC3)cc2c1`, with 46.3 µM (inactive).
For the compound `Clc1ccc(-c2nnsc2SCc2ccccc2)cc1`, in experiment [1], the IC50 is > 100 µM (inactive).
With `CC(C)(C)OC(=O)CNC(=O)c1[nH]cnc1C(=O)Nc1ccc(CNC(=O)OC(C)(C)C)cc1`, the IC50 in experiment [3] was > 79 µM (inactive).
On the same count and under the same terms, then `C[C@H](CO)N1C[C@H](C)[C@@H](CN(C)S(=O)(=O)c2cccs2)Oc2ccc(NC(=O)Nc3ccccc3)cc2C1=O`, with 11.9 µM (active).
As for `COc1ccc(C=NNC(=O)c2cc(C)oc2C)cc1O`, the concentration for half-maximal inhibition (IC50) in experiment [2] is 107 µM (active).
Still for that read-out and setting: to `Nc1nc(N)c2[nH]c(S)nc2n1` belongs 163 µM (active).
As for `Cc1cccc(NC(=O)c2[nH]cnc2C(=O)NCCCCNC(=O)c2nc[nH]c2C(=O)Nc2cccc(C)c2)c1`, in experiment [3], the IC50 is > 79 µM (inactive).
On the same count and under the same terms, to `Cc1nn(Cc2ccc(C(=O)N3CCN(C(=O)c4ccco4)CC3)o2)c(C)c1[N+](=O)[O-]` belongs 21.9 µM (active).
`O=C(Nc1cc(C(F)(F)F)ccc1N1CCCCC1)C1=COCCO1`: in experiment [1], the IC50 is > 100 µM (inactive).
As to `CC(C)NC(=O)Nc1ccc2c(c1)C(=O)N([C@@H](C)CO)C[C@H](C)[C@H](CN(C)C(=O)Nc1ccc(F)cc1)O2`, the AC50 in experiment [4] is 22.4 µM (active); in [5], 58.4 µM (active).
`C[C@H](CO)N1C[C@H](C)[C@H](CN(C)S(=O)(=O)c2ccc(F)cc2)Oc2ccc(NC(=O)Nc3cccc4ccccc34)cc2CC1=O`: the AC50 in experiment [4] was 0.483 µM (active); in experiment [10], < 0.26 µM (active); in experiment [5] it was 1.27 µM (active).
As for `CC(C)CC#Cc1ccc2c(c1)O[C@@H](CN(C)Cc1ccccn1)[C@H](C)CN([C@H](C)CO)S2(=O)=O`, the AC50 in experiment [4] was 31.9 µM (active); in experiment [10] it was 26.1 µM (active); in [5], 26 µM (active).
Take `O=C(CCCCCNC(=O)c1ccccc1)N/N=C/c1ccc(O)cc1O`: in experiment [2], the half-maximal inhibitory concentration (IC50) was 69.9 µM (active).
Same read-out and setting: then `O=C1CC(Nc2ccc(N3CCOCC3)cc2)C(=O)N1Cc1ccccc1` (centres undefined), with 140 µM (active).
